Data as given in PubChem BioAssay AID686942 (Broad Institute, 2013).

System: V. cholerae SLS353 luxOD47E qrr4-GFP fluorescence
Test: LuxO quorum inhibitors, qrr4 GFP fluorescence in V. cholerae SLS353 luxOD47E, dose response confirmation (AID 686942)

## Cn1nc(NC(=O)c2ccco2)c2cc3ccccc3nc21
  AC50: 2 µM

## O=C(Nc1nnc(-c2ccc3c(c2)OCCO3)o1)C1CCCCC1
  AC50: 2 µM

## COc1ccc2cc3c(NC(=O)c4ccco4)nn(C)c3nc2c1
  AC50: 2 µM
